Experiments:
solid tumors = settings: literature values of approved antibodies; cited from earlier work
MBT-2 cells = experiment: Proliferation assay of mouse cancer cell lines (CellTiter-Lumi, ATP); format: cell-based; settings: afuresertib 0.0001-10 μM, 3 days, FIG. 1
Description: The cell lines were obtained from Cobioer Biosciences Co. Ltd., Nanjing, China. 1,000 to 2,000 cells were seeded into 96-well plate, and induced with various concentrations of afuresertib (0.0001-10 μM) for 3 days at 37° C. with 5% CO2. The number of viable cells in culture was determined based on quantitation of the amount of ATP following the manufacturer's instructions (CellTiter-Lumi Kit, Beyotime).

Akt (protein kinase B) = settings: reversible, ATP-competitive; stated as known; cited from earlier work
mTNBC = settings: historical control for mTNBC patients with PD-L1 negative status; cited from earlier work

Molecule	ORR, Phase I studies in solid tumors (solid tumors) [%]	other results
Pembrolizumab: listed among other approved anti-PD-L1 antibodies from Phase I studies	5.3	
Cn1ncc(Cl)c1-c1cc(C(=O)N[C@H](CN)Cc2cccc(F)c2)sc1Cl [Afuresertib, N-{(1S)-2-amino-1-[(3-fluorophenyl)methyl]ethyl}-5-chloro-4-(4-chloro-1-methyl-1H-pyrazol-5-yl)-2-thiophenecarboxamide]		response of cell proliferation (cell viability) (MBT-2 cells): favorable response profile; pan-AKT kinase inhibitor potency (Akt (protein kinase B)): low-nanomolar
Atezolizumab: anti-PD-L1 antibody (Genentech/Roche)	10	
Avelumab: anti-PD-L1 antibody (Merck Serono and Pfizer)	9	
CC(=O)O[C@H]1C(=O)[C@@]2(C)[C@H]([C@H](OC(=O)c3ccccc3)[C@]3(O)C[C@H](OC(=O)[C@H](O)[C@@H](NC(=O)c4ccccc4)c4ccccc4)C(C)=C1C3(C)C)[C@]1(OC(C)=O)CO[C@@H]1C[C@@H]2O [paclitaxel, [(1S,2S,3R,4S,7R,9S,10S,12R,15S)-4,12-diacetyloxy-15-[(2R,3S)-3-benzamido-2-hydroxy-3-phenylpropanoyl]oxy-1,9-dihydroxy-10,14,17,17-tetramethyl-11-oxo-6-oxatetracyclo[11.3.1.0^3,10.0^4-7]heptadec-13-en-2-yl]benzoate]		ORR, paclitaxel monotherapy, LOTUS Study (mTNBC): 32%

Reference: US20250177352A1, “COMBINATION TREATMENT FOR CANCER” (LAEKNA LIMITED, priority 2022, published 2025)
